Results: patent US10640802B2 (priority 2012, dated 2020)

System: Acidithiobacillus ferrooxidans AfArsR variant C102S (biosensor co-cultured with Burkholderia sp. MR1)
Assay type: cell-based

| SMILES | response of co-cultured biosensor |
| --- | --- |
| O=[As](O)(O)c1ccccc1 [PAA, phenylarsonic acid] | it didn't |
| O=[N+]([O-])c1cc([As](=O)(O)O)ccc1O [Rox(V), 4-hydroxy-3-nitrobenzenearsonic acid] | it didn't |
